T1: GAL-L-hRXRa (Homo sapiens, UniProt P19793)
T1 sequence (P19793 203-462): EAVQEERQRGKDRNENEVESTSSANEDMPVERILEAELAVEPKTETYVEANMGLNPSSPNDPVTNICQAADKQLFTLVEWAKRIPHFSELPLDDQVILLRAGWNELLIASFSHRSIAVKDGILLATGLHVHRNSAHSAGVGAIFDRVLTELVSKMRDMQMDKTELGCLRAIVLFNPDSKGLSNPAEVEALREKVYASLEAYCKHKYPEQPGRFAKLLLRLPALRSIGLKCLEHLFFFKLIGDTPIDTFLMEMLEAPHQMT

T2: BAR-RXRα complex (UniProt P19793+Q62735)
T2 sequence (Q62735 1-469): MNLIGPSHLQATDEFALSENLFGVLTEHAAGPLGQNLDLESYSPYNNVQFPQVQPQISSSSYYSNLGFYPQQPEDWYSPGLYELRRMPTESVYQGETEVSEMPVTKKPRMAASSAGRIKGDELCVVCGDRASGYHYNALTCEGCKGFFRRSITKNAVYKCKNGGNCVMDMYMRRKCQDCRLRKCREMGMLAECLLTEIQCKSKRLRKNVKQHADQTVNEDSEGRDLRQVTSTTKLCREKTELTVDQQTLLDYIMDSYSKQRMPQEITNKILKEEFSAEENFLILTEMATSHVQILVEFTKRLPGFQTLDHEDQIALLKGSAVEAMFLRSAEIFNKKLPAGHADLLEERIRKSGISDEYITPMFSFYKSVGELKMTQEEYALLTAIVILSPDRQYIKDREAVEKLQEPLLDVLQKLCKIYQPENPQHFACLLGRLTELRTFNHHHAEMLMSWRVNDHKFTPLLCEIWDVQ
T2 sequence (P19793 1-462): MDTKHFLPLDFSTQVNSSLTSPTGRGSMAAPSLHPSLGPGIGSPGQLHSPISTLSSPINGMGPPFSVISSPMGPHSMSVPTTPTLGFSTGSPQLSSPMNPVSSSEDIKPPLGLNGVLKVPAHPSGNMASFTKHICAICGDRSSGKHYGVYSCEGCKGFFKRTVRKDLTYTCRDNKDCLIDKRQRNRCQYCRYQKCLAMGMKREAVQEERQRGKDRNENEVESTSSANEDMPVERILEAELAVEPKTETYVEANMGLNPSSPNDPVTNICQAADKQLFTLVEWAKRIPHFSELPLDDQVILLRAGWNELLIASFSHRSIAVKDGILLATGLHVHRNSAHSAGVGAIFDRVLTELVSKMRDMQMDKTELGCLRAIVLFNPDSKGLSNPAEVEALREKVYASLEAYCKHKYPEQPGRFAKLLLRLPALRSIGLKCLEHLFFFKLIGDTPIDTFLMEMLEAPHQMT


Legend:
GAL-L-hRXRa = target: T1, GAL-L-hRXRa; assay: Co-transfection luciferase assay, MH100 × 4 reporter, GAL-L-hRXRa alone; details: 50 μM CDCA
Method: CV-1 African Green Monkey cells were grown in Dulbecco's Modified Eagle's medium supplemented with 10% resin-charcoal stripped fetal bovine serum (FBS), 50 U/ml penicillin G and 50 μg/ml streptomycin sulfate (DMEM-FBS) at 37° C. in 5% CO2. One day prior to transfection, cells were plated to 50-80% confluence using phenol red-free DMEM-FBS. Cells were transiently transfected by lipofection as described in Forman et al., 81 Cell 687 (1995). Liposomes (N-[1-(2,3-dioleoyloxy)propyl]-N,N,N-ammonium methyl sulfate, sold by Boehringer Mannheim under the name DOTAP) were formed according to the manufacturer's instructions. The liposomes contained reporter gene constructs (300 ng/10^5 cells); cytomegalovirus driven expression vectors (25 ng/10^5 cells) were added as indicated along with CMX-Bgal (500 ng/10^5 cells) as an internal control. After 2 hours the liposomes were removed and replaced with fresh media. Cells were incubated for approximately 40 hours with phenol red-free DMEM-FBS containing the indicated compounds. After exposure to the specified ligand, the cells were harvested.
The harvested cells were assayed for the presence of luciferase activity. Cells were lysed in 0.1 M KPO4 (pH 7.8), 1.0% TRITON® X-100, 1.0 mM dithiolthreitol (DTT) and 2 mM ethylenediamine tetracetic acid (EDTA). Luciferase activity was measured by reaction of the cell lysates with luciferin in a reaction buffer comprising: 20 mM tricine, 1.07 mM Mg(CO3)4-Mg(OH)2-5H2O, 2.67 mM MgSO4.7H2O, 0.1 mM EDTA, 0.5 mM Sodium luciferin, 0.15 mg/ml Coenzyme A, 5 mM DTT, and 0.5 mM adenosine triphosphate (ATP). Resulting chemiluminescence was measured in a luminometer. […] All points were assayed in triplicate and varied by less than 15%. Each experiment was repeated three or more times with similar results.
As shown below, in most cases hRXRop was recombinantly coexpressed with one other of the indicated receptor constructs, so as to permit the formation of hetero-or homodimers containing hRXRop.
Expression of the luciferase reporter gene product was detected and quantified as described above.

BAR-RXRα complex = target: T2, BAR-RXRα complex; details: cited from earlier work
[1] = system: other nuclear hormone receptors; details: cited from earlier work
[2] = target: BAR/FXR:RXR heterodimer (CV-1 cells) (/ Homo sapiens, UniProt Q62735;P19793 SEQ:1-469,SEQ:1-462); assay: cell_activity; CV-1, 100 uM CDCA; text gives IBABP IR-1 reporter, FIG. 1A legend gives EcREx6; details: label: 32P (gel shift)

| Molecule | activation of the BAR-RXR complex (BAR-RXRα complex) | also measured |
| --- | --- | --- |
| C[C@H](CCC(=O)O)[C@H]1CC[C@H]2[C@@H]3[C@H](O)C[C@@H]4C[C@H](O)CC[C@]4(C)[C@H]3CC[C@]12C [CDCA, chenodeoxycholic acid, reference compound] | – | Reporter Activity (GAL-L-hRXRa): 0.38 |
| COC(=O)/C=C(\C)CC/C=C(\C)CC[C@H]1OC1(C)C [JH III, juvenile hormone III] | activated | activation of BAR/FXR or RXR alone (BAR-RXRα complex; either receptor alone): does not activate; activation of other nuclear hormone receptors [1]: failed to activate |
| CC(C)CCC[C@@H](C)[C@H]1CC[C@H]2[C@@H]3CC=C4C[C@@H](O)CC[C@]4(C)[C@H]3CC[C@]12C [cholesterol] | did not activate | – |
| CC(C)=CCCC(C)=CCCC(C)=CC=O [farnesal] | somewhat less strongly | – |
| CC(C)=CCCC(C)=CCCC(C)=CC(=O)O [farnesoic acid] | somewhat less strongly | – |
| CC(C)=CCC/C(C)=C/CO [geraniol] | did not activate | – |
| CC(C)=CCC/C(C)=C/CC/C(C)=C/CC/C(C)=C/CO [geranylgeraniol] | somewhat less strongly | – |
| CC(C)=CCC/C(C)=C/CC/C(C)=C/CC/C=C(\C)CC/C=C(\C)CCC=C(C)C [squalene] | did not activate | – |
| IBABP IR-1 BAR/FXR response element (dsDNA) DNA 1: CCTTAAGGTGAATAACCTTGGGGCTCC DNA 2: GGAGCCCCAAGGTTATTCACCTTAAGG | – | activity [2]: ~200 fold activation |
